Assay results reported in PubChem BioAssay (NCI).
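Assay format: 96-well plates, 48-hour exposure. TGI: concentration producing complete growth inhibition.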

Columns and labels:
Assay in all cases: growth of human tumour cells (NCI), 48 h
786-0 renal = tested on: 786-0 renal
DU-145 prostate = tested on: DU-145 prostate
HCT-15 colon = tested on: HCT-15 colon
HT29 colon = tested on: HT29 colon
NCI-H226 lung = tested on: NCI-H226 lung
NCI/ADR-RES ovarian = tested on: NCI/ADR-RES ovarian
PC-3 prostate = tested on: PC-3 prostate
RXF 393 renal = tested on: RXF 393 renal
SN12C renal = tested on: SN12C renal
SW-620 colon = tested on: SW-620 colon

Row | Compound | TGI (786-0 renal) [µM] | TGI (DU-145 prostate) [µM] | TGI (HCT-15 colon) [µM] | TGI (HT29 colon) [µM] | TGI (NCI-H226 lung) [µM] | TGI (NCI/ADR-RES ovarian) [µM] | TGI (PC-3 prostate) [µM] | TGI (RXF 393 renal) [µM] | TGI (SN12C renal) [µM] | TGI (SW-620 colon) [µM]
1 | CC1(C)CCC[C@@]2(C)C1CC[C@@]1(CO)O[C@H](C3=CC(=O)OC3O)C[C@H]12 (stereo not given in full) | 38.6 | 17.8 | 23.5 | 30.6 | 35.4 | 36.7 | 29.5 | 23.7 | 26.6 | 22.3
2 | COc1ccc(O[C@H](CO)C[C@@H]2COC(C)(C)O2)cc1 | > 100 | > 100 | > 100 | > 100 | > 100 | > 100 | > 100 | > 100 | > 100 | > 100
3 | O=C(/C=C/c1ccccc1)c1cc(CN2CCOCC2)c(O)c(CN2CCOCC2)c1 | 29 | 29.8 | 29.7 | > 100 | 64.9 | > 100 | 38.4 | 35.8 | 25.3 | 28.9
4 | CC(=O)CCC1(C(=O)OCC(C)C)CCCC1=O (stereo not given) | > 100 | > 100 | > 100 | > 100 | > 100 | > 100 | > 100 | > 100 | > 100 | > 100
5 | CC(=O)OC12c3ccccc3C(c3ccccc31)C1C(=O)N(N=C(C)C)C(=O)C12 (stereo not given) | > 100 | > 100 | > 100 | > 100 | > 100 | > 100 | > 100 | > 100 | > 100 | > 100
6 | O=c1c2[nH]cnc2n(-c2ccccc2)c(=S)n1-c1ccccc1 | > 100 | > 100 | > 100 | > 100 | > 100 | > 100 | > 100 | > 100 | > 100 | > 100
7 | CC(C)CNP(=O)(NCC(C)C)Oc1ccc(CC(NC(=O)OCc2ccccc2)C(=O)OCc2ccccc2)cc1 (stereo not given) | 28.9 | 24.3 | 89.6 | 33.4 | > 100 | > 100 | 30.8 | 36.2 | 39.9 | 40.2
8 | Cc1n[nH]c(=O)n1-n1cccc1 | > 100 | > 100 | > 100 | > 100 | > 100 | > 100 | > 100 | > 100 | > 100 | > 100
9 | O=c1[nH]nc(Nc2ccc(Cl)cc2)c2nnn(C3CCCCC3)c12 | 31.4 | > 100 | > 100 | > 100 | > 100 | > 100 | > 100 | 92.8 | > 100 | > 100
10 | COc1cc2c(cc1O)C(Cc1ccc(OCc3ccccc3)c(OCc3ccccc3)c1)N(C(=O)NCCc1ccccc1)CC2 (stereo not given) | > 100 | > 100 | > 100 | > 100 | > 100 | > 100 | > 100 | > 100 | > 100 | > 100
11 | Cc1ccc(C(=O)Nc2ccc(CP(=O)(O)O)cc2CP(=O)(O)O)cc1N | > 100 | > 100 | > 100 | > 100 | > 100 | > 100 | > 100 | > 100 | > 100 | > 100
12 | Cc1nnc(SCc2nc(C#N)c(C#N)nc2CSc2nnc(C)s2)s1 | 28.8 | 29.2 | 26.4 | 37.2 | 54.1 | > 92.2 | 41.1 | 18 | 38.2 | 15.6
13 | Cc1cccc2c1nc1n2C(=O)c2ccccc2-1 | > 100 | > 100 | > 100 | > 100 | > 100 | > 100 | > 100 | > 100 | > 100 | > 100
14 | COC(=O)c1c(O)ccc2c1c1c(n2Cc2ccc(OC)cc2)C(=O)c2ccccc2C1 | > 100 | > 100 | > 100 | 47.4 | > 100 | > 100 | 59.5 | 79.9 | 93.3 | > 100
15 | CC(C)(NO)/C(=N\O)c1ccccc1 | > 10 | > 10 | > 10 | > 10 | > 10 | > 10 | > 10 | > 10 | > 10 | > 10
16 | NC(=O)CSc1nc2ccccc2c(=O)n1N | > 100 | > 100 | > 100 | > 100 | > 100 | > 100 | > 100 | > 100 | > 100 | > 100
17 | O=C(O)[C@H]1NC[C@H]2C(Br)=NO[C@@H]12 | > 100 | > 100 | > 100 | > 100 | > 100 | > 100 | > 100 | > 100 | > 100 | > 100
